Laboratory results taken from ChEMBL document CHEMBL1201862, “PubChem BioAssay data set” (2004).
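Cultured in 96-well plates, cells were exposed to test compound for 48 hours across five concentrations. The concentration for 50% growth inhibition is given as GI50.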 The source made the active and inactive calls. Rule as the data show it: active = GI50 up to about 1.1 µM and inactive = higher.

How the values were obtained:
Assay in all cases: DTP human tumour cell line panel, 48 h
Malme-3M = system: Malme-3M
NCI-H226 = system: NCI-H226
Hs-578T = system: Hs-578T
DMS-273 = system: DMS-273
KM12 = system: KM12
A498 = system: A498
HL-60 = system: HL-60
SF-295 = system: SF-295
LOX IMVI = system: LOX IMVI
HOP-62 = system: HOP-62
M14 = system: M14
786-0 = system: 786-0
SNB-19 = system: SNB-19
NCI-H522 = system: NCI-H522
CCRF-CEM = system: CCRF-CEM
SF-268 = system: SF-268
NCI-H23 = system: NCI-H23
HCT-116 = system: HCT-116
IGROV-1 = system: IGROV-1
A549 = system: A549

Compound | GI50 (Malme-3M) | GI50 (NCI-H226) | GI50 (Hs-578T) | GI50 (DMS-273) | GI50 (KM12) | GI50 (A498) | GI50 (HL-60) | GI50 (SF-295) | GI50 (LOX IMVI) | GI50 (HOP-62) | GI50 (M14) | GI50 (786-0) | GI50 (SNB-19) | GI50 (NCI-H522) | GI50 (CCRF-CEM) | GI50 (SF-268) | GI50 (NCI-H23) | GI50 (HCT-116) | GI50 (IGROV-1) | GI50 (A549)
Clc1cccc(N2CCN(CCN3CCc4c([nH]c5ccccc45)C3c3cccnc3)CC2)c1 (configuration not stated) | > 66.8 µM (inactive) | > 37.3 µM (inactive) | > 68.9 µM (inactive) | 37.9 µM (inactive) | 8.05 µM (inactive) | > 100 µM (inactive) | 26.3 µM (inactive) | 69 µM (inactive) | > 50.2 µM (inactive) | > 45.6 µM (inactive) | > 79.4 µM (inactive) | 29.8 µM (inactive) | > 100 µM (inactive) | 65.5 µM (inactive) | > 40.4 µM (inactive) | > 100 µM (inactive) | 78.5 µM (inactive) | 31.8 µM (inactive) | 9.59 µM (inactive) | > 94.6 µM (inactive)
O=C1C=CC(=O)c2ccc(=O)ccc21 | 18.1 µM (inactive) | 34.8 µM (inactive) | 36.6 µM (inactive) | 25.5 µM (inactive) | 19.1 µM (inactive) | 16.9 µM (inactive) | 2.1 µM (inactive) | 13.2 µM (inactive) | 4.7 µM (inactive) | 25.9 µM (inactive) | 14.8 µM (inactive) | 17.5 µM (inactive) | 16.9 µM (inactive) | 2.09 µM (inactive) | 0.802 µM (active) | 17.1 µM (inactive) | 19.1 µM (inactive) | 10.8 µM (inactive) | 18.8 µM (inactive) | 30.1 µM (inactive)
O=C1CC(c2n[nH]c3ccccc23)C(=O)N1c1ccccc1 (configuration not stated) | > 100 µM (inactive) | > 88.5 µM (inactive) | > 100 µM (inactive) | > 100 µM (inactive) | > 100 µM (inactive) | > 100 µM (inactive) | 25.6 µM (inactive) | > 100 µM (inactive) | > 100 µM (inactive) | > 100 µM (inactive) | > 100 µM (inactive) | > 100 µM (inactive) | > 100 µM (inactive) | > 100 µM (inactive) | 29.2 µM (inactive) | > 100 µM (inactive) | > 100 µM (inactive) | > 100 µM (inactive) | > 100 µM (inactive) | > 100 µM (inactive)
CN1CCc2cc3c4cc2C1Cc1ccc(cc1)Oc1cc(ccc1O)CC1c2c(cc(O)c(c2O4)O3)CCN1C (configuration not stated) | 1.81 µM (inactive) | 2.07 µM (inactive) | – | 1.75 µM (inactive) | 1.86 µM (inactive) | > 10 µM (inactive) | 4.65 µM (inactive) | 1.56 µM (inactive) | 1.66 µM (inactive) | 5.4 µM (inactive) | 1.62 µM (inactive) | 5.26 µM (inactive) | 2.83 µM (inactive) | 2.79 µM (inactive) | 2.52 µM (inactive) | 2.16 µM (inactive) | 3.6 µM (inactive) | 1.41 µM (inactive) | 4.43 µM (inactive) | 2.45 µM (inactive)
O=C1C(=Cc2c(O)cc(O)cc2O)C(=O)c2ccccc21 | > 44.6 µM (inactive) | 36 µM (inactive) | – | > 100 µM (inactive) | > 36.7 µM (inactive) | 45.1 µM (inactive) | 16.8 µM (inactive) | > 41.9 µM (inactive) | 15.4 µM (inactive) | > 100 µM (inactive) | > 43.3 µM (inactive) | > 42.1 µM (inactive) | > 42.6 µM (inactive) | > 46 µM (inactive) | 29.9 µM (inactive) | > 45.4 µM (inactive) | > 39.4 µM (inactive) | > 39.3 µM (inactive) | > 43.5 µM (inactive) | > 100 µM (inactive)
CC1(c2cccc(C3CC4(CCC3=O)OCCCCO4)c2)OCCO1 (configuration not stated) | > 100 µM (inactive) | > 100 µM (inactive) | – | > 100 µM (inactive) | > 100 µM (inactive) | > 100 µM (inactive) | > 100 µM (inactive) | > 100 µM (inactive) | > 100 µM (inactive) | > 100 µM (inactive) | > 100 µM (inactive) | > 100 µM (inactive) | > 100 µM (inactive) | > 100 µM (inactive) | > 100 µM (inactive) | > 100 µM (inactive) | > 100 µM (inactive) | > 100 µM (inactive) | > 100 µM (inactive) | > 100 µM (inactive)
